The source of these data is patent US20110224210A1, “NOVEL BIS-AMIDES AS ANTI-MALARIAL AGENTS” (priority 2008, published 2011).

A word on the IC50: it is the concentration that inhibits the measured activity by half.

The subject of the experiment is P. falciparum K1 (strain resistant to chloroquine and pyrimethamine), erythrocytic stages. Briefly: Plasmodium falciparum in vitro assay, [3H] hypoxanthine incorporation. The format is cell-based. As to conditions: Plasmodium falciparum, K1, P. falciparum strain K1; [3H] hypoxanthine incorporation; read-out: IC50 (nM) on K1. The method, then:
In Vitro Antimalarial Activity: Plasmodium falciparum In Vitro Assay
In vitro activity against erythrocytic stages of P. falciparum is determined using a [^3H] hypoxanthine incorporation assay. One strain resistant to chloroquine and pyrimethamine (P. falciparum K1) is used in the assays, and all test compounds are compared for activity with the standard drugs chloroquine (sigma C6628) and artemisinin (sigma-36, 159-3). Compounds are diluted in DMSO to 1 mM and added to parasite cultures incubated in RPMI 1640 medium without hypoxanthine, supplemented with HEPES (5.94 g/L), NaHCO3 (2.1 g/L), neomycin (100 U/mL), Albumax (5 g/L) and washed human red cells at 2.5% haematocrit (0.3% parasitaemia). Seven serial doubling dilutions of each compound are prepared in 96-well microtitre plates and incubated in a humidifying atmosphere at 37° C.; 4% CO2, 3% O2, 93% N2.
After 48 h, 50 μl of [3H] hypoxanthine (0.5 μCi) is added to each well of a plate. The plates are incubated for a further 24 h under the same conditions. The plates are then harvested with a Betaplate cell harvester (Wallac) and washed with distilled water. The dried filters are inserted into a plastic foil with 10 mL of scintillation fluid, and counted in a Betaplate liquid scintillation counter. IC50 values are calculated from sigmoidal inhibition curves using Microsoft Excel.

For `Cc1noc(C)c1C=CC(=O)N(Cc1ccc(-c2cncnc2)cc1)[C@@H](Cc1ccccc1)C(=O)N1CCC(N(C)C)CC1` [Example 38, (S)-N-[1-Benzyl-2-(4-dimethylamino-piperidin-1-yl)-2-oxo-ethyl]-3-(3,5-dimethyl-isoxazol-4-yl)-N-(4-pyrimidin-5-yl-benzyl)-acrylamide], the IC50 is 417 nM. Under `CN(C)C1CCN(C(=O)[C@H](Cc2ccccc2)N(Cc2ccc(-c3cncnc3)cc2)C(=O)C=Cc2ccc(Cl)cn2)CC1` [Example 39, (S)-N-[1-Benzyl-2-(4-dimethylamino-piperidin-1-yl)-2-oxo-ethyl]-3-(5-chloro-pyridin-2-yl)-N-(4-pyrimidin-5-yl-benzyl)-acrylamide] stands 170 nM; under `CN(C)C1CCN(C(=O)[C@H](Cc2ccccc2)N(Cc2ccc(-c3cncnc3)cc2)C(=O)C=Cc2ccc(Cl)nc2)CC1` [Example 40, (S)-N-[1-Benzyl-2-(4-dimethylamino-piperidin-1-yl)-2-oxo-ethyl]-3-(6-chloro-pyridin-3-yl)-N-(4-pyrimidin-5-yl-benzyl)-acrylamide], 490 nM; under `COc1ccc(C=CC(=O)N(Cc2ccc(-c3cncnc3)cc2)[C@@H](Cc2ccccc2)C(=O)N2CCC(N(C)C)CC2)cn1` [Example 41, (S)-N-[1-Benzyl-2-(4-dimethylamino-piperidin-1-yl)-2-oxo-ethyl]-3-(6-methoxy-pyridin-3-yl)-N-(4-pyrimidin-5-yl-benzyl)-acrylamide], 169 nM. Next, `CN(C)C1CCN(C(=O)[C@H](Cc2ccccc2)N(Cc2ccc(-c3cncnc3)cc2)C(=O)C=Cc2ccc(C(F)(F)F)cn2)CC1` [Example 42, (S)-N-[1-Benzyl-2-(4-dimethylamino-piperidin-1-yl)-2-oxo-ethyl]-N-(4-pyrimidin-5-yl-benzyl)-3-(5-trifluoromethyl-pyridin-2-yl)-acrylamide]: 104 nM; `Cc1c(C=CC(=O)N(Cc2ccc(-c3cncnc3)cc2)[C@@H](Cc2ccccc2)C(=O)N2CCC(N(C)C)CC2)cnn1C` [Example 43, (S)-N-[1-Benzyl-2-(4-dimethylamino-piperidin-1-yl)-2-oxo-ethyl]-3-(1,5-dimethyl-1H-pyrazol-4-yl)-N-(4-pyrimidin-5-yl-benzyl)-acrylamide]: 354 nM; `O=C([C@H](Cc1ccccc1)N(Cc1ccccn1)C(=O)C=Cc1ccc(C(F)(F)F)cc1)N1CCC(Cc2ccccc2)CC1` [Example 44, (S)-N-[1-Benzyl-2-(4-benzyl-piperidin-1-yl)-2-oxo-ethyl]-N-pyridin-2-ylmethyl-3-(4-trifluoromethyl-phenyl)-acrylamide]: 14 nM. Next, `O=C([C@H](Cc1ccccc1)N(Cc1ccccc1)C(=O)C=Cc1ccc(C(F)(F)F)cc1)N1CCC(Cc2ccccc2)CC1` [Example 45, (S)-N-Benzyl-N-[1-benzyl-2-(4-benzyl-piperidin-1-yl)-2-oxo-ethyl]-3-(4-trifluoromethyl-phenyl)-acrylamide]: 4 nM. Consider `O=C([C@H](Cc1ccccc1)N(Cc1ccc(-c2ccccn2)cc1)C(=O)C=Cc1ccc(C(F)(F)F)cc1)N1CCC(Cc2ccccc2)CC1` [Example 46, (S)-N-[1-Benzyl-2-(4-benzyl-piperidin-1-yl)-2-oxo-ethyl]-N-(4-pyridin-2-yl-benzyl)-3-(4-trifluoromethyl-phenyl)-acrylamide], for which the IC50 was determined as 1 nM. Under `O=C([C@H](Cc1ccccc1)N(Cc1ccc(-c2cccnc2)cc1)C(=O)C=Cc1ccc(C(F)(F)F)nc1)N1CCC(Cc2ccccc2)CC1` [Example 47, (S)-N-[1-Benzyl-2-(4-benzyl-piperidin-1-yl)-2-oxo-ethyl]-N-(4-pyridin-3-yl-benzyl)-3-(6-trifluoromethyl-pyridin-3-yl)-acrylamide] stands 1 nM; under `O=C([C@H](Cc1ccccc1)N(Cc1ccccc1)C(=O)C=Cc1ccc(C(F)(F)F)nc1)N1CCC(Cc2ccccc2)CC1` [Example 48, (S)-N-Benzyl-N-[1-benzyl-2-(4-benzyl-piperidin-1-yl)-2-oxo-ethyl]-3-(6-trifluoromethyl-pyridin-3-yl)-acrylamide], 8 nM; under `O=C([C@H](Cc1ccccc1)N(Cc1ccc(-c2ccccn2)cc1)C(=O)C=Cc1ccc(C(F)(F)F)nc1)N1CCC(c2ccccc2)CC1` [Example 50, (S)-N-[1-Benzyl-2-oxo-2-(4-phenyl-piperidin-1-yl)-ethyl]-N-(4-pyridin-2-yl-benzyl)-3-(6-trifluoromethyl-pyridin-3-yl)-acrylamide], 13 nM.

With `CN(C)CC1CCN(C(=O)[C@H](Cc2ccccc2)N(Cc2ccc(-c3ccccn3)cc2)C(=O)C=Cc2ccc(C(F)(F)F)nc2)CC1` [Example 51, (S)-N-[1-Benzyl-2-(4-dimethylaminomethyl-piperidin-1-yl)-2-oxo-ethyl]-N-(4-pyridin-2-yl-benzyl)-3-(6-trifluoromethyl-pyridin-3-yl)-acrylamide], the IC50 stood at 90 nM.

On to `O=C([C@H](Cc1ccccc1)N(Cc1ccc(-c2ccccn2)cc1)C(=O)C=Cc1ccc(C(F)(F)F)cc1)N1CCC(CN2CCCC2)CC1` [Example 52, (S)-N-[1-Benzyl-2-oxo-2-(4-pyrrolidin-1-ylmethyl-piperidin-1-yl)-ethyl]-N-(4-pyridin-2-yl-benzyl)-3-(4-trifluoromethyl-phenyl)-acrylamide], for which the 50% inhibitory concentration (IC50) was 92 nM. Next, `CN(C)[C@@H]1CCN(C(=O)[C@H](Cc2ccccc2)N(Cc2ccc(-c3ccccn3)cc2)C(=O)C=Cc2ccc(C(F)(F)F)cc2)C1` [Example 53, N-[(S)-1-Benzyl-2-((R)-3-dimethylamino-pyrrolidin-1-yl)-2-oxo-ethyl]-N-(4-pyridin-2-yl-benzyl)-3-(4-trifluoromethyl-phenyl)-acrylamide]: 14 nM; `CN(C)[C@H]1CCN(C(=O)[C@H](Cc2ccccc2)N(Cc2ccc(-c3ccccn3)cc2)C(=O)C=Cc2ccc(C(F)(F)F)cc2)C1` [Example 54, N-[(S)-1-Benzyl-2-((S)-3-dimethylamino-pyrrolidin-1-yl)-2-oxo-ethyl]-N-(4-pyridin-2-yl-benzyl)-3-(4-trifluoromethyl-phenyl)-acrylamide]: 17 nM; `CN(C)[C@@H]1CCN(C(=O)[C@H](Cc2ccccc2)N(Cc2ccc(-c3ccccn3)cc2)C(=O)C=Cc2ccc(C(F)(F)F)nc2)C1` [Example 55, N-[(S)-1-Benzyl-2-((R)-3-dimethylamino-pyrrolidin-1-yl)-2-oxo-ethyl]-N-(4-pyridin-2-yl-benzyl)-3-(6-trifluoromethyl-pyridin-3-yl)-acrylamide]: 65 nM. Next, `CN(C)[C@H]1CCN(C(=O)[C@H](Cc2ccccc2)N(Cc2ccc(-c3ccccn3)cc2)C(=O)C=Cc2ccc(C(F)(F)F)nc2)C1` [Example 56, N-[(S)-1-Benzyl-2-((S)-3-dimethylamino-pyrrolidin-1-yl)-2-oxo-ethyl]-N-(4-pyridin-2-yl-benzyl)-3-(6-trifluoromethyl-pyridin-3-yl)-acrylamide]: 58 nM; `O=C([C@H](Cc1ccccc1)N(Cc1ccc(-c2cncnc2)cc1)C(=O)C=Cc1ccc(C(F)(F)F)cc1)N1CCc2ccccc21` [Example 57, (S)-N-[1-Benzyl-2-(2,3-dihydro-indol-1-yl)-2-oxo-ethyl]-N-(4-pyrimidin-5-yl-benzyl)-3-(4-trifluoromethyl-phenyl)-acrylamide]: 89 nM. In the case of `O=C([C@H](Cc1ccccc1)N(Cc1ccc(-c2ccccn2)cc1)C(=O)C=Cc1ccc(C(F)(F)F)nc1)N1Cc2ccccc2C1` [Example 58, (S)-N-[1-Benzyl-2-(1,3-dihydro-isoindol-2-yl)-2-oxo-ethyl]-N-(4-pyridin-2-yl-benzyl)-3-(6-trifluoromethyl-pyridin-3-yl)-acrylamide], the IC50 was determined as 50 nM. Under `COCCN(C)C(=O)[C@H](Cc1ccccc1)N(Cc1ccc(N2CCOCC2)cc1)C(=O)C=Cc1cc(C)nn1C` [Example 59, (S)-3-(2,5-Dimethyl-2H-pyrazol-3-yl)-N-{1-[(2-methoxy-ethyl)-methyl-carbamoyl]-2-phenyl-ethyl}-N-(4-morpholin-4-yl-benzyl)-acrylamide] stands 121 nM; under `COCCN(C)C(=O)[C@H](Cc1ccccc1)N(Cc1ccc(N2CCOCC2)cc1)C(=O)C=Cc1c(C)nn(C)c1C` [Example 60, (S)-N-{1-[(2-Methoxy-ethyl)-methyl-carbamoyl]-2-phenyl-ethyl}-N-(4-morpholin-4-yl-benzyl)-3-(1,3,5-trimethyl-1H-pyrazol-4-yl)-acrylamide], 48 nM; under `COCCN(C)C(=O)[C@H](Cc1ccccc1)N(Cc1ccc(N2CCOCC2)cc1)C(=O)C=Cc1cnc(C)n1C` [Example 61, (S)-3-(2,3-Dimethyl-3H-imidazol-4-yl)-N-{1-[(2-methoxy-ethyl)-methyl-carbamoyl]-2-phenyl-ethyl}-N-(4-morpholin-4-yl-benzyl)-acrylamide], 464 nM.

In the case of `COCCN(C)C(=O)[C@H](Cc1ccccc1)N(Cc1ccc(N2CCOCC2)cc1)C(=O)C=Cc1csc(C)n1` [Example 62, (S)-N-{1-[(2-Methoxy-ethyl)-methyl-carbamoyl]-2-phenyl-ethyl}-3-(2-methyl-thiazol-4-yl)-N-(4-morpholin-4-yl-benzyl)-acrylamide], the concentration for half-maximal inhibition (IC50) is 138 nM.
